Measured values published in patent US20030144360A1, “Composition and method for modulating BAR/FXR receptor activity” (Allergan Sales, Inc., priority 2001, published 2003).
Several values for one entry are separate records, joined by “and”; a condition that tells them apart may be missing. Identical values can stand only once. Blank lines part the entries; values can stand above or below the molecule they belong to.

Columns and labels:
[1] = biological target: T1, GAL-L-hRXRa (Homo sapiens, UniProt P19793); test: Co-transfection luciferase assay, MH100 × 4 reporter, GAL-L-hRXRa alone
T1 sequence (P19793 203-462): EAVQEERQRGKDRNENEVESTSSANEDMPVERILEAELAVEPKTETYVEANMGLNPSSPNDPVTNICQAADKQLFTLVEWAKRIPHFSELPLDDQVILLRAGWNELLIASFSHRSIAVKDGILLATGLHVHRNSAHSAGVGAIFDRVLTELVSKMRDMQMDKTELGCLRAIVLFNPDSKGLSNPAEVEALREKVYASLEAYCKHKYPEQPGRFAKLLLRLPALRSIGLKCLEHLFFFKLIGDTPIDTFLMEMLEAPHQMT

[2] = biological target: T2, BAR:RXR heterodimer (Homo sapiens, UniProt P19793+Q96RI1); test: Mammalian two hybrid assay detecting recruitment of CoA; assay type: cell-based
T2 construct: expressed in transfected cells
T2 sequence (Q96RI1 1-486): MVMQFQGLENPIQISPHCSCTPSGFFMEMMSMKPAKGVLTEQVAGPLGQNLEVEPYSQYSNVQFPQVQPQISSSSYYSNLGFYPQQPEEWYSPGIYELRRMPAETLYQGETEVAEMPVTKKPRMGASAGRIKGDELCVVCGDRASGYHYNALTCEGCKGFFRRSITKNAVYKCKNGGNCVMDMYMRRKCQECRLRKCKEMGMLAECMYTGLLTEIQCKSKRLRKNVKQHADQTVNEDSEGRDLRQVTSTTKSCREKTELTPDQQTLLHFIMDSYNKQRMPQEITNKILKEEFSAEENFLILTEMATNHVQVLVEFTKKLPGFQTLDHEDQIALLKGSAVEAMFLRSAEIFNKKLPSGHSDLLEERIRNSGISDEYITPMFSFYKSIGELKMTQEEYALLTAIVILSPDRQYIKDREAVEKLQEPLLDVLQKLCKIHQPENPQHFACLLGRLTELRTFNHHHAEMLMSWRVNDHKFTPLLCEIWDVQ
T2 sequence (P19793 1-462): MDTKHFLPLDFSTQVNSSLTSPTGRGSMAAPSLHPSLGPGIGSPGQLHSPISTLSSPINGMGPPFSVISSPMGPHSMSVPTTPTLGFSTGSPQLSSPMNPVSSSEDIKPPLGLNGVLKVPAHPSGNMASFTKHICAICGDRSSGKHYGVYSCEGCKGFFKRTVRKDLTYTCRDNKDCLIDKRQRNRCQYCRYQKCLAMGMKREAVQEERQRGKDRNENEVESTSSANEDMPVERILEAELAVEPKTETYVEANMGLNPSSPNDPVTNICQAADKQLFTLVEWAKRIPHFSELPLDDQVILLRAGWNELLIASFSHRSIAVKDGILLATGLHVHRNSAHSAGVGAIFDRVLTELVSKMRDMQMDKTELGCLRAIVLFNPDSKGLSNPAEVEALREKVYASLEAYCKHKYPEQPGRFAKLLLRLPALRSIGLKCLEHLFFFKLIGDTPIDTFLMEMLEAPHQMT

[3] = test system: human AR, mouse PXR, human PXR, ERα, human LXRα, mouse PPARα, mouse PPARγ, mouse PPARδ, human VDR, human TRB, mouse CARβ; test: Repression of cognate ligand-induced activity of other nuclear receptor/RXR heterodimers (luciferase reporter); assay type: cell-based; conditions: 1 mM AGN 34 with cognate ligand
Description: Resulting chemiluminescence was measured in a luminometer.
Various other nuclear receptor/RXR heterodimers were incubated with the cognate ligand of the non-RXR component of the heterodimer. These were: human AR (androgen receptor), mouse PXR (10 μM pregnenolone-16-carbonitrile), human PXR (10 μM rifampicin), ERα (100 nM 17β-estradiol), human LXRα (30 μM hyodeoxycholic acid methyl ester), mouse PPARα (5 μM Wy 14,643), mouse PPARγ (1 μM rosiglitazone), mouse PPARδ (1 μM carbaprostacyclin), human VDR (100 nM 1,25-dihydroxyvitamin D3) and human TRB (100 nM triiodothyronine). No ligand was added to mouse CARβ which is constitutively active. Each compound was incubated in the presence or absence of 1 mM AGN 34, then assayed for luciferase reporter activity.

[4] = biological target: T3, HFXR / HRXRop (Homo sapiens, UniProt P19793+Q96RI1); test: Co-transfection luciferase assay, EcRE × 6 reporter, HFXR + HRXRop;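 also: CV-1 monkey cells transfected with receptor vectors, luciferase reporter and β-galactosidase internal control, exposed to compounds about 40 h, then lysed and luminescence read in a luminometer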
T3 sequence (Q96RI1 1-486): T2 sequence (Q96RI1 1-486)
T3 sequence (P19793 1-462): T2 sequence (P19793 1-462)

[5] = biological target: T4, Gal-L-RXR (Homo sapiens, UniProt P19793); test: Gal-L-RXR fusion with Gal 4 reporter (MH100×4) in CV-1 cells; assay type: cell-based; conditions: 5 μM
T4 construct: expressed in transfected cells; host or cells: CV-1
T4 sequence (P19793 203-462): T1 sequence (P19793 203-462)

[6] = biological target: T5, Gal-L-RAR (Homo sapiens, UniProt P10276); test: Gal-L-RAR fusion with Gal 4 reporter (MH100×4) in CV-1 cells; assay type: cell-based; conditions: 5 μM
T5 construct: expressed in transfected cells; host or cells: CV-1
T5 sequence (P10276 156-462 limits assumed): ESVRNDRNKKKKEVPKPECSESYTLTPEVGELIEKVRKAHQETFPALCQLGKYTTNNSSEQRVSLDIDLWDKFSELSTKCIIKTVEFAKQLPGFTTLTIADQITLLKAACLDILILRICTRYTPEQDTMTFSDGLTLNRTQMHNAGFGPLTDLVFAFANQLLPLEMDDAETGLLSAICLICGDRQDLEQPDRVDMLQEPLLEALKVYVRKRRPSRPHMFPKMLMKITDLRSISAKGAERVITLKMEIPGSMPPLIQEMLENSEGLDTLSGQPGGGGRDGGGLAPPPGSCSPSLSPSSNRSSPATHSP

- Fold Activation ([1]; 0.1 μM LG268 + 0.01 μM AGN 34): 33.56 fold
- Reporter Activity ([1]; 0.1 μM LG268 + 0.01 μM AGN 34): 11.17
- Fold Activation ([1]; 0.1 μM LG268 + 0.1 μM AGN 34): 8.61 fold
- Reporter Activity ([1]; 0.1 μM LG268 + 0.1 μM AGN 34): 2.86
- Fold Activation ([1]; 0.1 μM LG268 + 1 μM AGN 34): 1.07 fold
- Reporter Activity ([1]; 0.1 μM LG268 + 1 μM AGN 34): 0.36
- Fold Activation ([1]; 0.1 μM LG268 + 3 μM AGN 34): 1.05 fold
- Reporter Activity ([1]; 0.1 μM LG268 + 3 μM AGN 34): 0.35
- Fold Activation ([1]; 0.1 μM LG268 + 10 μM AGN 34): 0.98 fold
- Reporter Activity ([1]; 0.1 μM LG268 + 10 μM AGN 34): 0.33
- Fold Activation ([1]; 10 μM AGN 34 alone): 1.14 fold and 1.12 fold
- Reporter Activity ([1]; 10 μM AGN 34 alone): 0.38 and 0.37
- Fold Activation ([1]; 50 μM CDCA + 0.01 μM AGN 34): 1.03 fold
- Reporter Activity ([1]; 50 μM CDCA + 0.01 μM AGN 34): 0.34
- Fold Activation ([1]; 50 μM CDCA + 0.1 μM AGN 34): 0.92 fold
- Reporter Activity ([1]; 50 μM CDCA + 0.1 μM AGN 34): 0.31
- Reporter Activity ([1]; 50 μM CDCA + 1 μM AGN 34): 0.37
- Fold Activation ([1]; 50 μM CDCA + 3 μM AGN 34): 1.05 fold
- Reporter Activity ([1]; 50 μM CDCA + 3 μM AGN 34): 0.35
- Fold Activation ([1]; 50 μM CDCA + 10 μM AGN 34): 1.10 fold
- Reporter Activity ([1]; 50 μM CDCA + 10 μM AGN 34): 0.37
- recruitment of CoA [2]: inhibits recruitment
- repression of specific ligand-induced activity of other nuclear receptors [3]: unable to repress
- Fold Activation ([4]; 0.1 μM LG268 + 0.01 μM AGN 34): 2.36 fold
- Reporter Activity ([4]; 0.1 μM LG268 + 0.01 μM AGN 34): 0.76
- Fold Activation ([4]; 0.1 μM LG268 + 0.1 μM AGN 34): 1.45 fold
- Reporter Activity ([4]; 0.1 μM LG268 + 0.1 μM AGN 34): 0.47
- Fold Activation ([4]; 0.1 μM LG268 + 1 μM AGN 34): 1.23 fold
- Reporter Activity ([4]; 0.1 μM LG268 + 1 μM AGN 34): 0.40
- Fold Activation ([4]; 0.1 μM LG268 + 3 μM AGN 34): 1.26 fold
- Reporter Activity ([4]; 0.1 μM LG268 + 3 μM AGN 34): 0.41
- Fold Activation ([4]; 0.1 μM LG268 + 10 μM AGN 34): 1.22 fold
- Reporter Activity ([4]; 0.1 μM LG268 + 10 μM AGN 34): 0.39
- Fold Activation ([4]; 10 μM AGN 34 alone): 1.21 fold and 1.35 fold
- Reporter Activity ([4]; 10 μM AGN 34 alone): 0.41 and 0.44
- Fold Activation ([4]; 50 μM CDCA + 0.01 μM AGN 34): 15.00 fold
- Reporter Activity ([4]; 50 μM CDCA + 0.01 μM AGN 34): 5.14
- Fold Activation ([4]; 50 μM CDCA + 0.1 μM AGN 34): 11.73 fold
- Reporter Activity ([4]; 50 μM CDCA + 0.1 μM AGN 34): 4.02
- Fold Activation ([4]; 50 μM CDCA + 1 μM AGN 34): 7.08 fold and 5.51 fold
- Reporter Activity ([4]; 50 μM CDCA + 1 μM AGN 34): 2.42
- Fold Activation ([4]; 50 μM CDCA + 3 μM AGN 34): 5.78 fold
- Reporter Activity ([4]; 50 μM CDCA + 3 μM AGN 34): 1.98
- Fold Activation ([4]; 50 μM CDCA + 10 μM AGN 34): 6.58 fold
- Reporter Activity ([4]; 50 μM CDCA + 10 μM AGN 34): 2.25
Structure (SMILES): CCCCCCOc1c(\C(C)=C/C=C/C(C)=C/C(=O)O)cc(C(C)C)cc1C(C)C [AGN 34, (2E, 4E, 6Z)-7-(2-Hexyloxy-3,5-diisopropylphenyl)-3-methylocta-2,4,6-trienoic Acid]

Structure (SMILES): Cc1cc2c(cc1/C(=C/c1ccc(C(=O)O)cc1)[Si](C)(C)C)C(C)(C)CCC2(C)C [AGN 29, (Z)-4-[2-(3,5,5,8,8-Pentamethy1-5,6,7,8-tetrahydronaphthalen-2-yl)-2-(trimethylsilyl)vinyl]benzoic Acid]
- activation of RXR [5]: retained some ability to activate RXR
- activation of RAR [6]: loss of specificity for RAR

- activation of RXR [5]: retained some ability to activate RXR
- activation of RAR [6]: loss of specificity for RAR
Structure (SMILES): CCCC/C(=C\c1ccc(C(=O)O)cc1)c1ccc2c(c1)C(C)(C)CCC2(C)C [AGN 31, 4-[2-(5,5,8,8-Tetramethyl-5,6,7,8-tetrahydronaphthalen-2-yl)hex-1-enyl]benzoic Acid]
